How the values were obtained:
FPTase = FPTase (Homo sapiens, UniProt P49354+P49356); assay: FPTase inhibition ([3H]FPP transfer to H-Ras); assay type: biochemical; details: 40 μM test compound (unless otherwise indicated)
Procedure: (§1) For those assays, the reaction mixtures contained the following components in 50 μl:0.25 μM [^3 H]GGPP (sp. act. 8-10 Ci/mmol), 2.5 μM Ras-CVLL, 50 mM Tris-Cl, pH 7.7, 20 mM KCl, 5 mM MgCl2, 5 μM ZnCl2, 1 mM DTT, 0.5 mM Zwittergent 3-14 and the desired amount of the compound to be tested for inhibitory potential. After pre-equilibrating the assay mixture at 30° C. in the absence of the enzyme, the reaction was initiated by addition of the enzyme (75 ng). Following an about 10 minute incubation at about 30° C., the reactions were terminated by addition of about 0.5 ml of about 4% SDS. About 40 mg of bovine brain membranes was added to the samples to enhance recovery during precipitation. […] Reactions were never allowed to proceed to more than 10% completion based on the limiting substrate. Assays for the inhibition studies of FPTase were performed analogous the GGPTase I inhibition studies, except [^3 H]GGPP was replaced with 0.25 μM of [^3 H]FPP (sp. act. 8-10 ci/mmol) and Ras-CVLL was replaced with 1 μM H-Ras.
(§2) Using the method described above, the GGPTase I and FPTase inhibitory activities of some of the compounds of the present invention were measured. The results of these measurements are provided in Tables I-VI, wherein a value of 100 indicates 100% GGPTase I or FPTase inhibition. Unless otherwise indicated, 40 μM concentration of a test compound is used. The term "alpha" refers to the position of R^1 substituent (e.g., 3,4-dichlorophenyl in Table I) on the nitrogen atom in the pyrazole ring that results in the shortest retention time using the HPLC gradient reported above, where as the term "beta" refers to the position of R^1 substituent (e.g., 3,4-dichlorophenyl in Table I) on the nitrogen atom in the pyrazole ring that results in a longer HPLC retention time than the alphα-regioisomer. Mixtures of regioisomers and/or enantiomers are used unless indicated otherwise using the above alpha and beta notations. The term "N/D" means not determined. In Tables I-VI, R^6 group indicated by *1 refers to {[N"-(1'-oxo-1'-pyrid-3-yl)methyl]-N'-carbamoyl}-3-aminopropyl moiety.

GGPTase I = molecular target: T1, GGPTase I (Rattus norvegicus, UniProt P53610+Q04631); assay: GGPTase I inhibition ([3H]GGPP transfer to Ras-CVLL); assay type: biochemical; details: 40 μM test compound (unless otherwise indicated)
T1 construct: made in house; host or cells: Sf9 insect cells (recombinant baculovirus, co-infection)
Procedure: as §1, §2

NC(=O)CNC(=O)CCCCc1cc(-c2cccnc2)n[nH]1 [IX, R^6 = HYDROGEN, R^1 = HYDROGEN]
inhibition at 40 µM (FPTase): 58%

CS(=O)(=O)CCC(NC(=O)CCc1cc(-c2cccnc2)n[nH]1)C(N)=O (centres unmarked)
inhibition at 40 µM (FPTase): 78%

NC(=O)C(Cc1ccccc1)NC(=O)CCCCc1cc(-c2cccnc2)n[nH]1 (centres unmarked) [IX, R^6 = BENZYL, R^1 = HYDROGEN]
inhibition at 40 µM (GGPTase I): 27%

NC(=O)C(Cc1c[nH]c2ccccc12)NC(=O)CCc1cc(-c2cccnc2)n[nH]1 (centres unmarked)
inhibition at 40 µM (FPTase): 83% | inhibition at 40 µM (GGPTase I): 24%

CC(C)C(NC(=O)CCCCc1cc(-c2cccnc2)n[nH]1)C(N)=O (centres unmarked) [IX, R^6 = ISOPROPYL, R^1 = HYDROGEN]
inhibition at 40 µM (FPTase): 78% | inhibition at 40 µM (GGPTase I): 33%

NC(=O)C(CCCNC(=O)NC(=O)c1cccnc1)NC(=O)CCCCc1cc(-c2cccnc2)n[nH]1 (centres unmarked) [IX, R^6 = *1, R^1 = HYDROGEN]
inhibition at 40 µM (FPTase): 57%

NC(=O)C(CCCNC(=O)NC(=O)c1cccnc1)NC(=O)CCc1cc(-c2cccnc2)n[nH]1 (centres unmarked) [X, R^6 = *1, R^1 = HYDROGEN]
inhibition at 40 µM (FPTase): 50%

CC(C)C(NC(=O)CCc1cc(-c2cccnc2)n[nH]1)C(N)=O (centres unmarked) [X, R^6 = ISOPROPYL, R^1 = HYDROGEN]
inhibition at 40 µM (FPTase): 72%

NC(=O)C(Cc1ccc(O)cc1)NC(=O)CCc1cc(-c2cccnc2)n[nH]1 (centres unmarked)
inhibition at 40 µM (GGPTase I): 24%

— patent US6191147A, “Pyrazole compounds and uses thereof” (PPD Discovery, Inc., priority 1999, dated 2001)
